In brackets after ≈: the same amount, converted by molar mass.
What was measured:
Format in all cases: functional
[1] = test system: Klebsiella pneumoniae; assay: Antimicrobial activity against Klebsiella pneumoniae ATCC 13883 incubated at 37 degC for 24 hrs by broth macrodilution method; details: ATCC 13883, 24 h
[2] = test system: Klebsiella pneumoniae; assay: Antimicrobial activity against Klebsiella pneumoniae
[3] = test system: Staphylococcus aureus; assay: Antimicrobial activity against methicillin-sensitive Staphylococcus aureus incubated at 37 degC for 24 hrs by broth macrodilution method
[4] = test system: Listeria monocytogenes; assay: Antimicrobial activity against Listeria monocytogenes incubated at 37 degC for 24 hrs by broth macrodilution method
[5] = test system: Bacillus cereus; assay: Antimicrobial activity against Bacillus cereus incubated at 37 degC for 24 hrs by broth macrodilution method
[6] = test system: Clostridioides difficile; assay: Antimicrobial activity against Clostridium difficile ATCC 9689 incubated at 37 degC for 24 hrs by broth macrodilution method; details: ATCC 9689, 24 h
[7] = test system: Staphylococcus aureus; assay: Antimicrobial activity against methicillin-resistant Staphylococcus aureus incubated at 37 degC for 24 hrs by broth macrodilution method
[8] = test system: Salmonella sp.; assay: Antimicrobial activity against Salmonella sp. incubated at 37 degC for 24 hrs by broth macrodilution method
[9] = test system: Escherichia coli; assay: Antimicrobial activity against Escherichia coli O157:H7 incubated at 37 degC for 24 hrs by broth macrodilution method; details: O157:H7, 24 h
[10] = test system: Pseudomonas; assay: Antimicrobial activity against Pseudomonas incubated at 37 degC for 24 hrs by broth macrodilution method
[11] = test system: Neisseria gonorrhoeae; assay: Antimicrobial activity against Neisseria gonorrhoeae incubated at 37 degC for 24 hrs by broth macrodilution method
[12] = test system: Pseudomonas aeruginosa; assay: Antimicrobial activity against Pseudomonas aeruginosa incubated at 37 degC for 24 hrs by broth macrodilution method
[13] = test system: Campylobacter jejuni; assay: Antimicrobial activity against Campylobacter jejuni ATCC 33291 incubated at 37 degC for 24 hrs by broth macrodilution method; details: ATCC 33291, 24 h
[14] = test system: Streptococcus pneumoniae; assay: Antimicrobial activity against Streptococcus pneumoniae incubated at 37 degC for 24 hrs by broth macrodilution method

Structure (SMILES) | MIC [1] | MIC [2] | MIC [3] | MIC [4] | MIC [5] | MIC [6] | MIC [7] | MIC [8] | MIC [9] | MIC [10] | MIC [11] | MIC [12] | MIC [13] | MIC [14]
O=C(O)c1cn(C2CC2)c2cc(N3CCNCC3)c(F)cc2c1=O [CIPROFLOXACIN] | 0.125 mg/L (≈ 0.377 µM) | 0.5 mg/L (≈ 1.51 µM) | – | – | – | – | – | – | – | – | – | – | – | –
Oc1cc(Br)cc(Br)c1Oc1ccc(Br)cc1Br | 0.1 mg/L (≈ 0.199 µM) | – | 1 mg/L (≈ 1.99 µM) | 2 mg/L (≈ 3.99 µM) | 0.1 mg/L (≈ 0.199 µM) | 4 mg/L (≈ 7.97 µM) | 0.1 mg/L (≈ 0.199 µM) | 1 mg/L (≈ 1.99 µM) | 8 mg/L (≈ 15.9 µM) | 4 mg/L (≈ 7.97 µM) | 2 mg/L (≈ 3.99 µM) | 16 mg/L (≈ 31.9 µM) | 5 mg/L (≈ 9.96 µM) | –
Oc1cc(Br)c(Br)c(Br)c1Oc1ccc(Br)cc1Br | – | – | – | 0.1 mg/L (≈ 0.172 µM) | – | 10 mg/L (≈ 17.2 µM) | 0.1 mg/L (≈ 0.172 µM) | 10 mg/L (≈ 17.2 µM) | – | – | – | – | 5 mg/L (≈ 8.61 µM) | –
Oc1c(Br)cc(Br)cc1Oc1ccc(Br)cc1Br | 5 mg/L (≈ 9.96 µM) | – | – | 1 mg/L (≈ 1.99 µM) | 5 mg/L (≈ 9.96 µM) | 10 mg/L (≈ 19.9 µM) | 1 mg/L (≈ 1.99 µM) | 10 mg/L (≈ 19.9 µM) | 10 mg/L (≈ 19.9 µM) | – | – | – | 5 mg/L (≈ 9.96 µM) | 5 mg/L (≈ 9.96 µM)
CO[C@@]1(NC(=O)Cc2cccs2)C(=O)N2C(C(=O)O)=C(COC(N)=O)CS[C@@H]21 [CEFOXITIN] | 0.25 mg/L (≈ 0.585 µM) | 2 mg/L (≈ 4.68 µM) | – | – | – | – | – | – | – | – | – | – | – | –
C[C@@H](O)[C@H]1C(=O)N2C(C(=O)O)=C(SCCNC=N)C[C@H]12 [IMIPENEM ANHYDROUS] | 0.25 mg/L (≈ 0.835 µM) | 0.25 mg/L (≈ 0.835 µM) | – | – | – | – | – | – | – | – | – | – | – | –
